What was measured:
Type in all cases: in vivo, human
[1] = tested on: cervical warts, CIN II, high risk HPV infection; test: Treatment of cervical warts, CIN II and high risk HPV infection with 0.25% gel (case report)
Method: A person had multiple abnormal pap smears with hair loss and skin changes secondary to hormonal imbalance. […] They were treated with 2 grams per day of 0.25% gel applied to the vagina for five days, for a total topical dose of 10 grams.

plantar warts = test: Treatment of plantar warts with A-007 0.25% gel (case report)
Source text: Prior attempts at local surgical removal of the warts had failed. […] A-007 was applied in a 0.25% gel (2 g) nightly for three nights and covered with an absorbent pad to allow maximum penetration.

[2] = tested on: condyloma on cervix, low risk HPV in the 6/11 category; test: Treatment of condyloma and HPV infection with 0.25% A-007 gel (case report)
Method: They also had atypical squamous epithelium and CIN with warts. The cervix was inflamed with squamous exo-cervical dysplasia and a warty labial growth. They were treated with 2 grams per day of 0.25% A-007 gel applied to the vagina for five days, for a total topical dose of 10 grams. […] The HPV infection was also eliminated, and was absent after 24 months of observation.

O=[N+]([O-])c1ccc(NN=C(c2ccc(O)cc2)c2ccc(O)cc2)c([N+](=O)[O-])c1 [A-007, 4,4′-dihydroxybenzophenone-2,4-dinitrophenylhydrazone]
warty lesions on cervix ([1]; 2 grams per day of 0.25% gel, vagina, five days): disappeared
CIN outcome ([1]; CIN II, 2 grams per day of 0.25% gel, vagina, five days): resolved
status at follow-up ([1]; after 18 months of observation): stable
HPV infection status ([1]; high risk HPV at baseline, 2 grams per day of 0.25% gel, vagina, five days): converted to low grade
toxicities ([1]; person, 2 grams per day of 0.25% gel applied to the vagina for five days, total 10 grams): No toxicities were observed
appearance of treated area (plantar warts; 0.25% gel (2 g) nightly for three nights, after 7 days): new skin appeared which was soft with no area of induration
recurrence of warts and induration (plantar warts; after two months of follow-up observation): Neither the warts nor induration returned
time until treated area began peeling and new skin appeared (plantar warts; person, left foot, 0.25% gel (2 g) nightly for three nights under absorbent pad): 7 days
external warty mass (labial growth) ([2]; 2 grams per day of 0.25% A-007 gel, vagina, five days): fell off the labia
HPV infection at follow-up ([2]; after 24 months of observation): absent
HPV infection status ([2]; low risk HPV 6/11 at baseline, 2 grams per day of 0.25% A-007 gel, vagina, five days): eliminated
cervical condyloma ([2]; person, 2 grams per day of 0.25% A-007 gel applied to the vagina for five days, total 10 grams): disappeared
